According to PubChem BioAssay (NCI):
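A five-concentration, 48-hour dose response in 96-well plates underlies each endpoint, interpolated linearly between surrounding concentrations. Definition used: TGI = concentration required for complete inhibition of growth.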

How the values were obtained:
Assay in all cases: growth of human tumour cells (NCI), 48 h
[1] = tested on: MOLT-4 leukemia
[2] = tested on: MDA-MB-231 breast
[3] = tested on: DU-145 prostate
[4] = tested on: CCRF-CEM leukemia
[5] = tested on: BT-549 breast
[6] = tested on: OVCAR-3 ovarian
[7] = tested on: RPMI-8226 leukemia
[8] = tested on: OVCAR-8 ovarian
[9] = tested on: U251 CNS
[10] = tested on: IGROV1 ovarian
[11] = tested on: SK-OV-3 ovarian
[12] = tested on: RXF 393 renal
[13] = tested on: CAKI-1 renal
[14] = tested on: T-47D breast
[15] = tested on: UO-31 renal
[16] = tested on: ACHN renal
[17] = tested on: SF-295 CNS
[18] = tested on: PC-3 prostate
[19] = tested on: MCF7 breast
[20] = tested on: SNB-75 CNS
[21] = tested on: SNB-19 CNS
[22] = tested on: MDA-MB-435
[23] = tested on: SN12C renal
[24] = tested on: A549 NSCLC
[25] = tested on: KM12 colon
[26] = tested on: HCC-2998 colon
[27] = tested on: HT29 colon
[28] = tested on: NCI-H23 lung
[29] = tested on: COLO 205 colon
[30] = tested on: UACC-257 melanoma
[31] = tested on: NCI-H460 lung
[32] = tested on: NCI/ADR-RES ovarian
[33] = tested on: HCT-116 colon
[34] = tested on: TK-10 renal
[35] = tested on: MDA-N
[36] = tested on: SK-MEL-28 melanoma
[37] = tested on: M14 melanoma
[38] = tested on: K-562 leukemia
[39] = tested on: HOP-62 NSCLC
[40] = tested on: EKVX NSCLC
[41] = tested on: UACC-62 melanoma
[42] = tested on: SF-268 CNS
[43] = tested on: HOP-92 NSCLC
[44] = tested on: SR leukemia
[45] = tested on: SK-MEL-5 melanoma
[46] = tested on: SW-620 colon
[47] = tested on: OVCAR-4 ovarian
[48] = tested on: LOX IMVI melanoma
[49] = tested on: NCI-H226 lung
[50] = tested on: SK-MEL-2 melanoma
[51] = tested on: SF-539 CNS
[52] = tested on: OVCAR-5 ovarian
[53] = tested on: MALME-3M melanoma
[54] = tested on: HS 578T breast
[55] = tested on: NCI-H522 lung
[56] = tested on: HCT-15 colon
[57] = tested on: 786-0 renal
[58] = tested on: HL-60(TB) leukemia

SMILES: COC(=O)N1CC2C3C4CC(C(c5ccccc5)=C4c4ccccc4)C3C21 (stereo unspecified)
- TGI [1]: 38.6 µM
- TGI [2]: 22.3 µM
- TGI [3]: 34.5 µM
- TGI [4]: 43.4 µM
- TGI [5]: 31.4 µM
- TGI [6]: 36.7 µM
- TGI [7]: 53.4 µM
- TGI [8]: 35.7 µM
- TGI [9]: 27.5 µM
- TGI [10]: 45.6 µM
- TGI [11]: 70.2 µM
- TGI [12]: 39.9 µM
- TGI [13]: 32.8 µM
- TGI [14]: 32.9 µM
- TGI [15]: 26 µM
- TGI [16]: 52.3 µM
- TGI [17]: 32.4 µM
- TGI [18]: 69.3 µM
- TGI [19]: 78.3 µM
- TGI [20]: 76.4 µM
- TGI [21]: 57.5 µM
- TGI [22]: 32.8 µM
- TGI [23]: 33.1 µM
- TGI [24]: 73.1 µM
- TGI [25]: 34.2 µM
- TGI [26]: 31.5 µM
- TGI [27]: 37.7 µM
- TGI [28]: 98.1 µM
- TGI [29]: 45.2 µM
- TGI [30]: 28.9 µM
- TGI [31]: 32.2 µM
- TGI [32]: 35.4 µM
- TGI [33]: 25.7 µM
- TGI [34]: 30.8 µM
- TGI [35]: 46.5 µM
- TGI [36]: 35.4 µM
- TGI [37]: 51.9 µM
- TGI [38]: > 100 µM
- TGI [39]: 42.5 µM
- TGI [40]: 36.7 µM
- TGI [41]: 27 µM
- TGI [42]: 33.7 µM
- TGI [43]: 24.5 µM
- TGI [44]: 51.1 µM
- TGI [45]: 25.9 µM
- TGI [46]: 40.4 µM
- TGI [47]: 29.5 µM
- TGI [48]: 25.6 µM
- TGI [49]: 29.6 µM
- TGI [50]: 50.5 µM
- TGI [51]: 32 µM
- TGI [52]: 91.2 µM

SMILES: CCCCCCCCCCCCCCCCCC(=O)OCC(COC(=O)CCCN)OC(=O)CCCN (stereo unspecified)
- TGI [1]: 70.8 µM
- TGI [2]: 28.2 µM
- TGI [3]: 33.7 µM
- TGI [4]: > 100 µM
- TGI [6]: 35.3 µM
- TGI [8]: 37.1 µM
- TGI [9]: 40.8 µM
- TGI [10]: 8.01 µM
- TGI [11]: 34.3 µM
- TGI [12]: 32.5 µM
- TGI [13]: 35.5 µM
- TGI [14]: 40 µM
- TGI [15]: 3.63 µM
- TGI [16]: > 100 µM
- TGI [17]: 35.1 µM
- TGI [18]: 35.5 µM
- TGI [19]: 47.1 µM
- TGI [20]: > 100 µM
- TGI [21]: 48 µM
- TGI [22]: 33.2 µM
- TGI [23]: 31.6 µM
- TGI [24]: 16.4 µM
- TGI [25]: 33.5 µM
- TGI [53]: 38.2 µM
- TGI [54]: 43.7 µM
- TGI [26]: 35.9 µM
- TGI [27]: 33.5 µM
- TGI [28]: 31.9 µM
- TGI [29]: 31.1 µM
- TGI [30]: 34.4 µM
- TGI [31]: 30.7 µM
- TGI [32]: 37 µM
- TGI [33]: 40.1 µM
- TGI [34]: 36.7 µM
- TGI [35]: 39.4 µM
- TGI [36]: 34.4 µM
- TGI [37]: 31.4 µM
- TGI [55]: 50.4 µM
- TGI [56]: 52.3 µM
- TGI [38]: > 100 µM
- TGI [39]: 33.8 µM
- TGI [40]: 53.9 µM
- TGI [41]: 35.3 µM
- TGI [42]: 45.3 µM
- TGI [43]: 26.6 µM
- TGI [57]: 34.3 µM
- TGI [58]: 77 µM
- TGI [44]: > 100 µM
- TGI [46]: 38.2 µM
- TGI [47]: 40.9 µM
- TGI [48]: 42.5 µM
- TGI [49]: 44.4 µM
- TGI [51]: 32.2 µM
- TGI [52]: 29.4 µM
